Test results as given in patent publication US20260191863A1, “PYRROLOPYRIMIDINE COMPOSITIONS FOR TREATMENT OF ITK MEDIATED CONDITIONS” (ACLARIS THERAPEUTICS, INC., priority 2022, published 2026).
Where “and” joins values, the source holds several entries; their conditions need not be identical. Equal values may be shown once. Read-outs that look alike come from different tables or passages of the source.

What was measured:
[1] = test system: JAK1/2; test: Cell IC50 JAK1/2 hPBMC IFNγ/pSTAT1; type: cell-based, human
[2] = Phase 1 single ascending dose (SAD) study: pharmacokinetics, food effect, formulation bridging; type: in vivo, human; conditions: for AUC(0-t): read-out: AUC0-24; for Vd/F: read-out: Vz/F
Method: Type of Study—This was an FIH, randomized, observer-blind, placebo-controlled study designed to evaluate the safety, tolerability, PK, and PD of Compound I in healthy subjects. The study consisted of: single ascending dose (SAD) cohorts (1-80 mg/day) plus formulation bridging and food effect (FE) cohorts.
Approximately 64 male and female subjects were enrolled into 8 planned cohorts in the SAD study. In each cohort, a total of 8 subjects were randomized to receive a single oral capsule dose of Compound I (n=6) or placebo (n=2) in the morning with approximately 240 mL of water after an overnight fast of at least 8 hours.
Cohort 4 was an FE (food effect) cohort where subjects received Compound I capsules or placebo, fasted on Day 1 and Compound I or placebo after a high-fat, high-calorie breakfast on Day 8 after a 7-day washout period.
Cohort 5 was a formulation bridging cohort where subjects will receive Compound I capsules or placebo on Day 1 and Compound I tablets or placebo on Day 8 after a 7-day washout period.
The dosage form of Compound I in Cohorts 6, 7, and 8 were capsules and the subjects will receive a single oral dose of Compound I (n=6) capsules or placebo (n=2) on Day 1 after an overnight fast of at least 8 hours.

[3] = test system: αCD3 & αCD28 stimulated IL2mRNA; test: MAD ex vivo PD: αCD3 & αCD28 stimulated IL2 mRNA; type: in vivo; conditions: Homo sapiens
Excerpt: (§1) Exploratory Endpoints—Mean change from baseline in cellular, extracellular (secreted), and/or message markers of inflammation.
(§2) EC50 and IC50 data for αCD3 & αCD28 stimulated IL2mRNA, IL15 stimulated IFNγ protein, and αCD3 & IL15 stimulated IFNγ protein is shown in table 9.

[4] = test system: ITK (IFNγ mRNA); test: Pre-clinical αCD3/αCD28 stimulated IFNγ mRNA; type: cell-based; conditions: Homo sapiens
[5] = test system: ITK & JAK (IFNγ protein); test: SAD ex vivo PD: αCD3/IL15 stimulated IFNγ protein production; type: in vivo, human; conditions: for EC50: Homo sapiens; for Inhibition of dual ITK and JAK3-stimulated IFNγ protein production: SAD higher dose cohorts
Excerpt: Summary of SAD data: FIGS. 4-8 and 9-13 show the SAD dose response, SAD exposure response, and SAD calculated response at Cmax by dose respectively for ITK (IL2 mRNA), ITK (IFNγ mRNA), JAK3 (pSTAT5, lymph), JAK3 (pSTAT5, CD3′ T), and ITK & JAK (IFNγ protein). Clinical and pre-clinical IC50 data for ITK (IL2 mRNA), ITK (IFNγ mRNA), JAK3 (pSTAT5, lymph), JAK3 (pSTAT5, CD3^+ T), and ITK & JAK (IFNγ protein) from the SAD study is shown in table 4.

[6] = test system: αCD3 & IL15 stimulated IFNγ protein; test: MAD ex vivo PD: αCD3 & IL15 stimulated IFNγ protein; type: in vivo, human
Excerpt: as §1, §2

[7] = test system: experimental colitis; test: Mouse colitis model vs ritlecitinib and tofacitinib, histological damage; type: in vivo; conditions: proximal/distal colon and ileum
Method: […] experimental colitis data-Histological damage was evaluated for the proximal/distal colon and ileum. Representative data shown here is from the distal colon-across all three regions of GI tissues analyzed.

[8] = test system: IL15 stimulated IFNγ protein; test: MAD ex vivo PD: IL15 stimulated IFNγ protein; type: in vivo; conditions: Homo sapiens
Excerpt: as §1, §2

[9] = test system: ITK (IL2 mRNA); test: Pre-clinical human whole blood αCD3/28/IL-2 mRNA (2 hr); type: cell-based
[10] = both sexes, human, in vivo, po, 1 mg, single oral dose 1 mg, capsule, fasted
[11] = both sexes, human, in vivo, po, 3 mg, single oral dose 3 mg, capsule, fasted
[12] = both sexes, human, in vivo, po, 5 mg, single oral dose 5 mg, capsule, fasted
[13] = both sexes, human, in vivo, po, 15 mg, single oral dose 15 mg, capsule, fasted
[14] = both sexes, human, in vivo, po, 15 mg, single oral dose 15 mg, capsule, fed (high-fat, high-calorie breakfast)
[15] = both sexes, human, in vivo, po, 25 mg, single oral dose 25 mg, capsule, fasted
[16] = both sexes, human, in vivo, po, 25 mg, single oral dose 25 mg, tablet
[17] = both sexes, human, in vivo, po, 50 mg, single oral dose 50 mg, capsule, fasted
[18] = both sexes, human, in vivo, po, 80 mg, single oral dose 80 mg, capsule, fasted
[19] = single oral dose 15 mg, capsule, fasted
[20] = single oral dose 15 mg, capsule, fed (high-fat, high-calorie breakfast)

In the case of `C=CC(=O)N1C[C@H](Nc2ncnc3[nH]cc([C@H]4CC4(F)F)c23)CC[C@@H]1C` [Compound I, 1-((2S,5R)-5-((5-((R)-2,2-difluorocyclopropyl)-7H-pyrrolo[2,3-d]pyrimidin-4-yl)amino)-2-methylpiperidin-1-yl)prop-2-en-1-one], the “Cell IC50, JAK1/2 hPBMC IFNγ/pSTAT1” value [1] is reported as “Inactive”, the “Difference in PK parameters between capsule and tablet formulation” value ([2]; 25 mg single dose) is reported as “No significant difference” and the “Plasma concentration dose dependence” value ([2]; SAD) is reported as “increased in a dose-dependent manner”. The “Time to peak plasma concentration after dosing” value ([2]; SAD) was ≤ 2 h, the “Exposure dose proportionality (Cmax and AUC)” value ([2]; SAD, 1-80 mg single dose) was “dose-proportional” and the half-life ([2]; both sexes, human, in vivo, oral, SAD, 1-80 mg single dose, read-out: Half-life (range across doses)) was 1.5 to 2.5 h. For the same molecule, the Tmax ([2]; both sexes, human, in vivo, oral, SAD, 1-80 mg single dose, read-out: Tmax (range across doses)) was 0.7 to 1.2 h, the AUC(0-inf) [2, 10] was 5.95 ng·h/mL and the Cmax [2, 10] was 2.71 ng/mL. For the same molecule, the AUC(0-t) [2, 10] was 5.95 ng·h/mL, the half-life ([2]; both sexes, human, in vivo, po, 1 mg, single oral dose 1 mg, capsule, fasted, read-out: T1/2 (converted)) was 1.51 h and the Tmax ([2]; both sexes, human, in vivo, po, 1 mg, single oral dose 1 mg, capsule, fasted, read-out: Tmax) was 0.674 h. It also gave a Vd/F [2, 10] of 384 L, an AUC(0-inf) [2, 11] of 15.8 ng·h/mL and a Cmax [2, 11] of 5.9 ng/mL. For the same molecule, the AUC(0-t) [2, 11] was 15.4 ng·h/mL, the half-life ([2]; both sexes, human, in vivo, po, 3 mg, single oral dose 3 mg, capsule, fasted, read-out: T1/2 (converted)) was 1.53 h and the Tmax ([2]; both sexes, human, in vivo, po, 3 mg, single oral dose 3 mg, capsule, fasted, read-out: Tmax) was 0.757 h. The Vd/F [2, 11] was 419 L, the AUC(0-inf) [2, 12] was 33.5 ng·h/mL and the Cmax [2, 12] was 11.9 ng/mL. The AUC(0-t) [2, 12] was 33.1 ng·h/mL, the half-life ([2]; both sexes, human, in vivo, po, 5 mg, single oral dose 5 mg, capsule, fasted, read-out: T1/2 (converted)) was 1.53 h and the Tmax ([2]; both sexes, human, in vivo, po, 5 mg, single oral dose 5 mg, capsule, fasted, read-out: Tmax) was 1.07 h. The Vd/F [2, 12] was 331 L, the AUC(0-inf) [2, 13] was 96.7 ng·h/mL and the Cmax [2, 13] was 31.5 ng/mL. For the same molecule, the AUC(0-t) [2, 13] was 95.7 ng·h/mL, the half-life ([2]; both sexes, human, in vivo, po, 15 mg, single oral dose 15 mg, capsule, fasted, read-out: T1/2 (converted)) was 1.61 h and the Tmax ([2]; both sexes, human, in vivo, po, 15 mg, single oral dose 15 mg, capsule, fasted, read-out: Tmax) was 1 h. The Vd/F [2, 13] was 360 L, the AUC(0-inf) [2, 14] was 93.9 ng·h/mL and the Cmax [2, 14] was 17.6 ng/mL. The AUC(0-t) [2, 14] was 105 ng·h/mL, the half-life ([2]; both sexes, human, in vivo, po, 15 mg, single oral dose 15 mg, capsule, fed (high-fat, high-calorie breakfast), read-out: T1/2 (converted)) was 1.73 h and the Tmax ([2]; both sexes, human, in vivo, po, 15 mg, single oral dose 15 mg, capsule, fed (high-fat, high-calorie breakfast), read-out: Tmax) was 5 h. The Vd/F [2, 14] was 399 L, the AUC(0-inf) [2, 15] was 154 ng·h/mL and the Cmax [2, 15] was 47 ng/mL. For the same molecule, the AUC(0-t) [2, 15] was 153 ng·h/mL, the half-life ([2]; both sexes, human, in vivo, po, 25 mg, single oral dose 25 mg, capsule, fasted, read-out: T1/2 (converted)) was 1.57 h and the Tmax ([2]; both sexes, human, in vivo, po, 25 mg, single oral dose 25 mg, capsule, fasted, read-out: Tmax) was 1.35 h. The Vd/F [2, 15] was 366 L, the AUC(0-inf) [2, 16] was 199 ng·h/mL and the Cmax [2, 16] was 63.6 ng/mL. For the same molecule, the AUC(0-t) [2, 16] was 197 ng·h/mL, the half-life ([2]; both sexes, human, in vivo, po, 25 mg, single oral dose 25 mg, tablet, read-out: T1/2 (converted)) was 1.75 h and the Tmax ([2]; both sexes, human, in vivo, po, 25 mg, single oral dose 25 mg, tablet, read-out: Tmax) was 1.07 h. It also gave a Vd/F [2, 16] of 317 L, an AUC(0-inf) [2, 17] of 428 ng·h/mL and a Cmax [2, 17] of 143 ng/mL. For the same molecule, the AUC(0-t) [2, 17] was 426 ng·h/mL, the half-life ([2]; both sexes, human, in vivo, po, 50 mg, single oral dose 50 mg, capsule, fasted, read-out: T1/2 (converted)) was 1.84 h and the Tmax ([2]; both sexes, human, in vivo, po, 50 mg, single oral dose 50 mg, capsule, fasted, read-out: Tmax) was 1.24 h. For the same molecule, the Vd/F [2, 17] was 310 L, the AUC(0-inf) [2, 18] was 676 ng·h/mL and the Cmax [2, 18] was 196 ng/mL. For the same molecule, the AUC(0-t) [2, 18] was 675 ng·h/mL, the half-life ([2]; both sexes, human, in vivo, po, 80 mg, single oral dose 80 mg, capsule, fasted, read-out: T1/2 (converted)) was 2.53 h and the Tmax ([2]; both sexes, human, in vivo, po, 80 mg, single oral dose 80 mg, capsule, fasted, read-out: Tmax) was 1.22 h. For the same molecule, the Vd/F [2, 18] was 432 L, the “Effect of high-calorie, high-fat meal on AUC, bioavailability, T1/2” value ([2]; single 15 mg dose) was “no significant effect” and the “Reduction of Cmax by a high-calorie, high-fat meal” value ([2]; single 15 mg dose) was 31%. It also gave a CL/F ([2]; single oral dose 1 mg, capsule, fasted) of 168 L/h, a CL/F ([2]; single oral dose 3 mg, capsule, fasted) of 190 L/h and a CL/F ([2]; single oral dose 5 mg, capsule, fasted) of 149 L/h. It also gave a CL/F [2, 19] of 155 L/h, a Tmax [2, 19] of 1.09 h and a CL/F [2, 20] of 160 L/h. For the same molecule, the Tmax [2, 20] was 4.99 h, the CL/F ([2]; single oral dose 25 mg, capsule, fasted) was 162 L/h and the CL/F ([2]; single oral dose 25 mg, tablet) was 126 L/h. For the same molecule, the CL/F ([2]; single oral dose 50 mg, capsule, fasted) was 117 L/h, the CL/F ([2]; single oral dose 80 mg, capsule, fasted) was 118 L/h and the “PK profile (linearity, absorption)” value ([2]; up to 80 mg single dose) was “PK was linear and absorption was fast”. For the same molecule, the EC50 [3] was 0.0019 µg/mL and 5.3 nM, the EC50 [4] was 17.3 ± 3 nM and the EC50 ([5]; SAD study, read-out: Clinical EC50) was 7.3 nM. For the same molecule, the EC50 ([5]; read-out: SAD EC50) was 0.0026 µg/mL and 7.3 nM, the “Inhibition of dual ITK and JAK3-stimulated IFNγ protein production” value [5] was “Near complete inhibition” and the “Inhibition of dual ITK and JAK3-stimulated IFNγ protein production” value ([5]; maintained for 12 hours) was > 50%. For the same molecule, the EC50 ([6]; Homo sapiens, read-out: MAD EC50) was 0.0041 µg/mL and 11.4 nM, the EC50 ([6]; human whole blood dual stimulation, read-out: Human Compound I Cp to reach HWB dual stim EC50 (MAD PD data)) was ≥ 3.47 ng/mL and the “Protection from histological damage vs comparator drugs” value [7] was “more protective than both comparator drugs”. For the same molecule, the EC50 [8] was 0.0022 µg/mL and 6.1 nM, the “Potency relative to Ritlecitinib, αCD3/28/IL-2 mRNA (2 hr)” value [9] was “(35 fold*)” and the IC50 ([9]; Homo sapiens) was 0.0077 µg/mL and 21.3 nM. It also gave an EC50 ([9]; Homo sapiens, 2 h, read-out: Human Whole Blood EC50, αCD3/28/IL-2 mRNA (2 hr)) of 21 nM and an EC50 ([9]; Homo sapiens, read-out: Pre-clinical EC50) of 21.3 ± 4.3 nM.
